In patent publication US10329302B2, “Bicyclic-fused heteroaryl or aryl compounds” (Pfizer Inc., priority 2014, dated 2019) one finds IC50 data, which are given here for 26 molecules.

Chain of human IRAK4 kinase domain (aa 154-460) (Q9NWZ3 154-460): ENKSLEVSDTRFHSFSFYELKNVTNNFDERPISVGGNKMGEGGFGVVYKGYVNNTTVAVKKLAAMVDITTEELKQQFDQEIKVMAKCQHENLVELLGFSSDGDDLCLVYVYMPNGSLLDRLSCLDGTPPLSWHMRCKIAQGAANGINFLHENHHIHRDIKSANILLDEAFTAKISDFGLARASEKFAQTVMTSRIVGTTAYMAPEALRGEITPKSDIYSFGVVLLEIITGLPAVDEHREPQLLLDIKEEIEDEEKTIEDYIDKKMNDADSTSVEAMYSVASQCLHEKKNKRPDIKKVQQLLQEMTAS

The target of the assay is human IRAK4 kinase domain (aa 154-460) (Homo sapiens (Human), UniProt Q9NWZ3). As to the kind of experiment: IRAK4 Enzymatic DELFIA Assay, Protocol B. To be noted: human IRAK4 kinase domain (aa 154-460), 0.6 mM ATP (KM); read-out: IRAK4 DELFIA Protocol B IC50. In kind it is biochemical. The text has this:
IRAK4 Enzymatic DELFIA Assay, Protocol B.
A word on the IC50: it is the concentration at which inhibition is half-maximal. As to `CC(C)Oc1cc2c(OC[C@@H]3COCCN3C(=O)CC#N)nccc2cc1C(N)=O` [Example 83, 1-{[(3S)-4-(cyanoacetyl)morpholin-3-yl]methoxy}-7-(propan-2-yloxy)isoquinoline-6-carboxamide], the IC50 stood at 175 nM. To `CO[C@H]1CN(C(=O)CC#N)C[C@@H]1COc1nccc2cc(C(N)=O)c(OC(C)C)cc12` [Example 84, 1-{[(3R,4R)-1-(cyanoacetyl)-4-methoxypyrrolidin-3-yl]methoxy}-7-(propan-2-yloxy)isoquinoline-6-carboxamide] belongs 534 nM. For the molecule `CC(C)Oc1cc2c(OC[C@H]3CN(C(=O)CC#N)C[C@@H]3C)nccc2cc1C(N)=O` [Example 85, 1-{[(3R,4R)-1-(cyanoacetyl)-4-methylpyrrolidin-3-yl]methoxy}-7-(propan-2-yloxy)isoquinoline-6-carboxamide], the IC50 was 610 nM. `CC(C)Oc1cc2c(OCC3(C)CCN(C(=O)CC#N)CC3)nccc2cc1C(N)=O` [Example 86, 1-{[1-(cyanoacetyl)-4-methylpiperidin-4-yl]methoxy}-7-(propan-2-yloxy)isoquinoline-6-carboxamide]: the IC50 amounted to 216 nM. To `CC(C)Oc1cc2c(OC[C@@H]3[C@H]4CN(C(=O)CC#N)C[C@@H]34)ccnc2cc1C(N)=O` [Example 87, 4-{[(1R,5S,6r)-3-(cyanoacetyl)-3-azabicyclo[3.1.0]hex-6-yl]methoxy}-6-(propan-2-yloxy)quinoline-7-carboxamide] belongs 2620 nM; to `CC(C)Oc1cc2c(OC[C@H]3CN(C(=O)CC#N)C[C@@H]3C)ccnc2cc1C(N)=O` [Example 88, 4-{[(3R,4R)-1-(cyanoacetyl)-4-methylpyrrolidin-3-yl]methoxy}-6-(propan-2-yloxy)quinoline-7-carboxamide], 292 nM; to `CC(C)Oc1cc2c(O[C@@H]3C[C@H]4C[C@@H]3CN(C(=O)CC#N)C4)ccnc2cc1C(N)=O` [Example 89, 4-{[(1R,5R,6R)-3-(cyanoacetyl)-3-azabicyclo[3.2.1]oct-6-yl]oxy}-6-(propan-2-yloxy)quinoline-7-carboxamide], 395 nM. To `CC(C)Oc1cc2c(OC[C@@]34C[C@@H]3CN(C(=O)CC#N)C4)ccnc2cc1C(N)=O` [Example 90, 4-{[(1S,5S)-3-(cyanoacetyl)-3-azabicyclo[3.1.0]hex-1-yl]methoxy}-6-(propan-2-yloxy)quinoline-7-carboxamide] belongs 438 nM; to `CC(C)Oc1cc2c(OCC3(C)CCN(C(=O)CC#N)CC3)ccnc2cc1C(N)=O` [Example 91, 4-{[1-(cyanoacetyl)-4-methylpiperidin-4-yl]methoxy}-6-(propan-2-yloxy)quinoline-7-carboxamide], 489 nM. For the molecule `CC(C)Oc1cc2c(OC[C@H]3CCCN(C(=O)CC#N)C3)ccnc2cc1C(N)=O` [Example 93, 4-{[(3S)-1-(cyanoacetyl)piperidin-3-yl]methoxy}-6-(propan-2-yloxy)quinoline-7-carboxamide], the IC50 was found to be 1520 nM. For `CC(C)Oc1cc2c(OC[C@@]34C[C@@H]3CN(C(=O)CC#N)C4)ccnc2cc1C(N)=O` [Example 94, 4-{[(1S,5S)-3-(cyanoacetyl)-3-azabicyclo[3.1.0]hex-1-yl]methoxy}-6-(propan-2-yloxy)quinoline-7-carboxamide], the concentration for half-maximal inhibition (IC50) is 526 nM.

For the molecule `CC(C)Oc1cc2c(OCC3(F)CCN(C(=O)CC#N)CC3)ccnc2cc1C(N)=O` [Example 95, 4-{[1-(cyanoacetyl)-4-fluoropiperidin-4-yl]methoxy}-6-(propan-2-yloxy)quinoline-7-carboxamide], the IC50 was determined as 3170 nM. With `CO[C@H]1CN(C(=O)CC#N)C[C@@H]1COc1ccnc2cc(C(N)=O)c(OC(C)C)cc12` [Example 96, 4-{[(3R,4R)-1-(cyanoacetyl)-4-methoxypyrrolidin-3-yl]methoxy}-6-(propan-2-yloxy)quinoline-7-carboxamide], the IC50 was 301 nM.

With `CC(C)Oc1cc2c(OC[C@@H]3CCCN(C(=O)CC#N)C3)ccnc2cc1C(N)=O` [Example 97, 4-{[(3R)-1-(cyanoacetyl)piperidin-3-yl]methoxy}-6-(propan-2-yloxy)quinoline-7-carboxamide], the IC50 came to 2740 nM. The result for `CC(C)Oc1cc2c(OC[C@@H]3CN(C(=O)CC#N)CCO3)ccnc2cc1C(N)=O` [Example 98, 4-{[(2S)-4-(cyanoacetyl)morpholin-2-yl]methoxy}-6-(propan-2-yloxy)quinoline-7-carboxamide] reads 575 nM; that for `CC(C)Oc1cc2c(OCC3CCCCN3C(=O)CC#N)ccnc2cc1C(N)=O` (centres unmarked) [Example 99, 4-{[1-(cyanoacetyl)piperidin-2-yl]methoxy}-6-(propan-2-yloxy)quinoline-7-carboxamide], 524 nM; that for `CC(C)Oc1cc2c(OCC3CCN(C(=O)CC#N)CC3)ccnc2cc1C(N)=O` [Example 100, 4-{[1-(cyanoacetyl)piperidin-4-yl]methoxy}-6-(propan-2-yloxy)quinoline-7-carboxamide], 482 nM.

For the molecule `CC(C)Oc1cc2c(O[C@H]3C[C@@H]4C[C@H]3CN4)nccc2cc1C(N)=O` [Example 101, 1-[(1S,4S,5S)-2-azabicyclo[2.2.1]hept-5-yloxy]-7-(propan-2-yloxy)isoquinoline-6-carboxamide], the IC50 stood at 1180 nM. Turning to `CC(C)Oc1cc2c(OC[C@@H]3CC(C)C(=O)N3)nccc2cc1C(N)=O` (stereo partly drawn) [Example 107, 1-{[(2S)-4-methyl-5-oxopyrrolidin-2-yl]methoxy}-7-(propan-2-yloxy)isoquinoline-6-carboxamide], the IC50 amounted to 16 nM. Take `CC(C)Oc1cc2c(O[C@@H]3C[C@@H]4CN[C@H]3C4)nccc2cc1C(N)=O` [Example 108, 1-[(1S,4R,6R)-2-azabicyclo[2.2.1]hept-6-yloxy]-7-(propan-2-yloxy)isoquinoline-6-carboxamide]: the IC50 was found to be 1870 nM. Turning to `CC(C)Oc1cc2c(O[C@H]3C[C@@H]4CN[C@H]3C4)nccc2cc1C(N)=O` [Example 109, 1-[(1S,4R,6S)-2-azabicyclo[2.2.1]hept-6-yloxy]-7-(propan-2-yloxy)isoquinoline-6-carboxamide], the IC50 stood at 1910 nM. Regarding `CC(C)Oc1cc2c(OCC3CNC(=O)C3)nccc2cc1C(N)=O` (centres unmarked) [Example 111, 1-[(5-oxopyrrolidin-3-yl)methoxy]-7-(propan-2-yloxy)isoquinoline-6-carboxamide], the IC50 came out at 196 nM. In the case of `CC(C)Oc1cc2c(OC[C@@H]3CCNC3)cccc2cc1C(N)=O` [Example 115, 3-(propan-2-yloxy)-5-[(3R)-pyrrolidin-3-ylmethoxy]naphthalene-2-carboxamide], the IC50 was determined as 61 nM. Consider `CC(C)Oc1cc2c(OC[C@@H]3CCNC3)nccc2cc1C(N)=O` [Example 117, 7-(propan-2-yloxy)-1-[(3R)-pyrrolidin-3-ylmethoxy]isoquinoline-6-carboxamide], for which the IC50 came out at 136 nM. With `CC(C)Oc1cc2c(OC[C@@H]3CCN3)nccc2cc1C(N)=O` [Example 119, 1-[(2S)-azetidin-2-ylmethoxy]-7-(propan-2-yloxy)isoquinoline-6-carboxamide], the IC50 was 1430 nM.

As to `CC(C)Oc1cc2c(O[C@@H]3CC[C@H]4CC(=O)N[C@H]43)nccc2cc1C(N)=O` [Example 130, 1-{[(3aS,6R,6aR)-2-oxooctahydrocyclopenta[b]pyrrol-6-yl]oxy}-7-(propan-2-yloxy)isoquinoline-6-carboxamide], the IC50 came to 417 nM.
